These are literature values, as cited in patent US20200229407A1 (priority 2017, published 2020).

For series [1], the system named is prion replication in neuroblastoma cells.
A further series deals with scrapie agent. As to conditions: mouse, in vivo.

With `COc1ccc(CCN2CCC(Nc3nc4ccccc4n3Cc3ccc(F)cc3)CC2)cc1` [astemizole], the “cell-surface PrP” value with cell-surface PrP is “reducing cell-surface PrP”. Besides, in series [1], the prion replication entry is “inhibiting prion replication”.
As for `C=CC[C@@H]1/C=C(\C)C[C@H](C)C[C@H](OC)[C@H]2O[C@@](O)(C(=O)C(=O)N3CCCC[C@H]3C(=O)O[C@H](/C(C)=C/[C@@H]3CC[C@@H](O)[C@H](OC)C3)[C@H](C)[C@@H](O)CC1=O)[C@H](C)C[C@@H]2OC` [tacrolimus], the “cell-surface PrP” value with cell-surface PrP is “reducing cell-surface PrP”. For the same compound, the prion replication entry in series [1] is “inhibiting prion replication”.
In the case of pentosan polysulphate [PPS], the incubation period entry in the series with scrapie agent is “prolonged the incubation period”.
